Results from publication PMC6274772, “Guided Evolution of Recombinant Bombyx mori Acetylcholinesterase II by Homology Modeling to Change Pesticide Sensitivity” (International Journal of Molecular Sciences, 2018).
Where two headings read alike, the source gives them in different places.

Tests used:
[1] = target: T1, rBmAChE II (recombinant Bombyx mori type II acetylcholinesterase) (Bombyx mori, UniProt B0FGT2); format: biochemical; details: 30 µL (printed 30 mL) of 0.1 mg/mL physostigmine, 10 min preincubation at 37 °C; crude enzyme supernatant; ATChI substrate, DTNB, 50 mM phosphate
T1 construct: gene ace2; predicted N-terminal signal peptide removed, codon-optimized, pPIC9K in Pichia pastoris GS115, secreted; crude culture supernatant; 604 residues
T1 sequence (B0FGT2 entry or part of it): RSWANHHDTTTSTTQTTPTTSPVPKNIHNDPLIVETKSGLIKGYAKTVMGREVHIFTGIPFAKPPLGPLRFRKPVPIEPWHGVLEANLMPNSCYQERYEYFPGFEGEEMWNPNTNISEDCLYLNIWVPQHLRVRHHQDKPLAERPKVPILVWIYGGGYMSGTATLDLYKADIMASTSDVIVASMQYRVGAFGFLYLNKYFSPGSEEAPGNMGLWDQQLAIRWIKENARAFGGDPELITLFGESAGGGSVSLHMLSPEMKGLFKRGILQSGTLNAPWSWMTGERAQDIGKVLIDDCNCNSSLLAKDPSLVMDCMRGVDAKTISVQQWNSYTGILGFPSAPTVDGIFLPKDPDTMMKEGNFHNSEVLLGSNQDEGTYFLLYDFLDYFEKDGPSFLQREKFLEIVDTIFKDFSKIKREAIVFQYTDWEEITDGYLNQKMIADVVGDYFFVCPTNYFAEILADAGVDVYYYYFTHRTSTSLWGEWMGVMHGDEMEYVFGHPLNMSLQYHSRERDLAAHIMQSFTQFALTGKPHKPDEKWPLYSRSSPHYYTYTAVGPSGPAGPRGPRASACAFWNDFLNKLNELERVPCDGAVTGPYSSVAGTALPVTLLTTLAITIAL

[2] = target: T2, rBmAChE II (recombinant Bombyx mori type II acetylcholinesterase) (Bombyx mori, UniProt B0FGT2, Y398W); details: crude enzyme supernatant, substrate acetylthiocholine iodide (ATChI), DTNB, 50 mM phosphate, 37 °C, covalent
T2 construct: gene ace2
T2 sequence (B0FGT2 entry or part of it Y398W): as the sequence (B0FGT2 entry or part of it) above, with Y375W counted along it

[3] = target: T3, rBmAChE II (recombinant Bombyx mori type II acetylcholinesterase) (Bombyx mori, UniProt B0FGT2, Y398G); details: crude enzyme supernatant; substrate acetylthiocholine iodide (ATChI), DTNB, 50 mM phosphate, 37 °C; covalent
T3 construct: gene ace2
T3 sequence (B0FGT2 entry or part of it Y398G): as the sequence (B0FGT2 entry or part of it) above, with Y375G counted along it

[4] = target: T1, rBmAChE II (recombinant Bombyx mori type II acetylcholinesterase); experiment: Ellman assay inhibition; format: biochemical; details: crude enzyme supernatant; substrate acetylthiocholine iodide (ATChI), DTNB, 50 mM phosphate, 37 °C; covalent
From the text: Ellman assay inhibition on rBmAChE II (recombinant Bombyx mori type II acetylcholinesterase) | inhibition of rBmAChE II mutants by various pesticides (malathion, methomyl, carbaryl, and carbofuran-3-hydroxy)

[5] = target: T4, rBmAChE II (recombinant Bombyx mori type II acetylcholinesterase) (Bombyx mori, UniProt B0FGT2, Y398F); details: crude enzyme supernatant; substrate acetylthiocholine iodide (ATChI), DTNB, 50 mM phosphate, 37 °C; covalent
T4 construct: gene ace2
T4 sequence (B0FGT2 entry or part of it Y398F): as the sequence (B0FGT2 entry or part of it) above, with Y375F counted along it

Row | SMILES | Ellman assay, remaining activity [1] | IC50 [2] | IC50 [3] | IC50 [4] | IC50 [5] | IC50 ([2]; stated gain)
1 | CNC(=O)Oc1ccc2c(c1)[C@]1(C)CCN(C)[C@@H]1N2C [physostigmine] | All four enzyme variants could be inhibited by physostigmine. | – | – | – | – | –
2 | CNC(=O)Oc1cccc2ccccc12 [carbaryl] | – | 16 nM | 56 nM | 33 nM | 21 nM | –
3 | CCOC(=O)CC(SP(=S)(OC)OC)C(=O)OCC (stereo not drawn) [malathion] | – | – | – | 2820 nM | 1130 nM | 5430 nM
4 | CNC(=O)ON=C(C)SC [methomyl] | – | 4380 nM | – | 750 nM | 470 nM | –
5 | CNC(=O)Oc1cccc2c1OC(C)(C)C2O (stereo not drawn) [carbofuran-3-hydroxy] | – | 246 nM | 193 nM | 76 nM | 43 nM | –
